# Measurements from ChEMBL document CHEMBL5576038, “Design of a novel long-acting dual GLP-1/GIP receptor agonist” (Bioorg Med Chem, 2024).
# pEC50: −log10 of the molar value. Calls of active or inactive are those of the source. The rule behind the calls is not given here. Where a SMILES comes first, the peptide text is derived from it. [ ]: non-standard residue; d: D form. The star is where a group is joined. X4 = O=C(O)CCCCCCCCCCCCCCCCCCC(=O)NCCOCCOCC(=O)N[C@@H](CCC(=O)N[C@@H](CCC(=O)N[C@@H](CCCCNC(=O)C*)C(=O)O)C(=O)O)C(=O)O; X3 = O=C(O)CCCCCCCCCCCCCCCCC(=O)NCCOCCOCC(=O)N[C@@H](CCC(=O)N[C@@H](CCC(=O)N[C@@H](CCCCNC(=O)C*)C(=O)O)C(=O)O)C(=O)O; X2 = O=C(O)CCCCCCCCCCCCCCCCC(=O)NCCOCCOCC(=O)N[C@@H](CCC(=O)N[C@H](CCC(=O)N[C@H](CCCCNC(=O)C*)C(=O)O)C(=O)O)C(=O)O; Aib = CC(C)(N)C(=O)O
# Columns and labels:
# [1] = biological target: T1, Gastric inhibitory polypeptide receptor (Homo sapiens, UniProt P48546); assay: Agonist activity at human GIPR expressed in CHO cells assessed as increase in cAMP production incubated for 30 mins by Eu-cAMP tracer based microplate reader analysis; type: functional, cell-based
# T1 sequence (P48546 whole entry): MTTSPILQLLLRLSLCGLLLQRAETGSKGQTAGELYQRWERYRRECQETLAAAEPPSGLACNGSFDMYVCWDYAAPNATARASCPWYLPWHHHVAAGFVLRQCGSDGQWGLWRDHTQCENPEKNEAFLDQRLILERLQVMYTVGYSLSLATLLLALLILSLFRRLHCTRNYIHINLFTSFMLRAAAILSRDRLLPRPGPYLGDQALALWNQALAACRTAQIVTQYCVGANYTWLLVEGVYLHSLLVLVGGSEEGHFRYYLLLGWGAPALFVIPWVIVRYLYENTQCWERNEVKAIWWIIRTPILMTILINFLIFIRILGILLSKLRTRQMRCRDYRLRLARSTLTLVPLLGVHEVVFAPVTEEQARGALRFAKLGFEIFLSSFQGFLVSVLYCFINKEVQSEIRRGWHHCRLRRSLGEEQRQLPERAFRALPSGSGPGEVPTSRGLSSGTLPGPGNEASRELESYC
# [2] = biological target: Glucagon-like peptide 1 receptor (Homo sapiens, UniProt P43220); assay: Agonist activity at human GLP-1R expressed in CHO cells assessed as increase in cAMP production incubated for 30 mins by Eu-cAMP tracer based microplate reader analysis; type: functional, cell-based
# Sequence of Glucagon-like peptide 1 receptor (P43220 whole entry): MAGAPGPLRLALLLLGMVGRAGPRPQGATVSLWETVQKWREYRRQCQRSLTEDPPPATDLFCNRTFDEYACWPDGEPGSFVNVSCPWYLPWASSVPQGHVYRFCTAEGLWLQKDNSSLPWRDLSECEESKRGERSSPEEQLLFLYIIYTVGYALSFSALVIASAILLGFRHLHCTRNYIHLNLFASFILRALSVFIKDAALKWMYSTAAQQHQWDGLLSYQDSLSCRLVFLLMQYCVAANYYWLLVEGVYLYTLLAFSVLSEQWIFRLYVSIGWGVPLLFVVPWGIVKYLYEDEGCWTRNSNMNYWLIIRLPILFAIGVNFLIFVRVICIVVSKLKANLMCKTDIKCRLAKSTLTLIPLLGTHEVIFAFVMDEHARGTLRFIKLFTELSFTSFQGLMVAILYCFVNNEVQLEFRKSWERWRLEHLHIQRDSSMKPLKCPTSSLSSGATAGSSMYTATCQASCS
# [3] = test system: Mus musculus; assay: Increase in body weight in male ICR mouse at 30 nmol/kg, sc measured after 2 days; type: functional, organism-based; conditions: time 2.0 day
# [4] = Cmax in Beagle dog at 10 nmol/kg, sc administered as single dose and measured upto 168 hrs by LC-MS/MS analysis; type: ADME, organism-based, Canis lupus familiaris; conditions: in vivo, sc, 168 h
# [5] = Elimination half life in Beagle dog at 10 nmol/kg, sc administered as single dose and measured upto 168 hrs by LC-MS/MS analysis; type: ADME, organism-based, Canis lupus familiaris; conditions: in vivo, sc, 168 h
# [6] = Tmax in Beagle dog at 10 nmol/kg, sc administered as single dose and measured upto 168 hrs by LC-MS/MS analysis; type: ADME, organism-based, Canis lupus familiaris; conditions: in vivo, sc, 168 h
# [7] = AUC (0 to 168 hrs) in Beagle dog at 10 nmol/kg, sc administered as single dose and measured upto 168 hrs by LC-MS/MS analysis; type: ADME, organism-based, Canis lupus familiaris; conditions: in vivo, sc, 168 h
# [8] = test system: Mus musculus; assay: Hypoglycemic effect in male db/db mouse model assessed as reduction in HbA1c level at 30 nmol/kg, sc administered every 3 days for 60 days and measured on day 18, 31, 37, 52, 58 and 60 by auto-chemistry analyzer; type: functional, organism-based; conditions: time 60.0 day
# [9] = test system: Mus musculus; assay: Anti-obesity activity in male C57/B16 mouse model of diet-induced obesity assessed as reduction in body weight at 30 nmol/kg, sc administered every 3 days for 46 days and measured every 3 days relative to control; type: functional, organism-based; set-up: scale not given: the % may be the effect or the level left; conditions: time 46.0 day
# [10] = test system: Mus musculus; assay: Hypoglycemic effect in male db/db mouse model assessed as reduction in body weight at 30 nmol/kg, sc administered every 3 days for 60 days and measured every 3 days; type: functional, organism-based; conditions: time 60.0 day
# [11] = test system: Mus musculus; assay: Glucose-lowering effect in male ICR mouse assessed as reduction in plasma glucose AUC (0 to 72 hrs) at 30 nmol/kg, sc pretreated for 71 hrs followed by […] administration and measured after 60 mins by oral glucose tolerance test; type: functional, organism-based
# [12] = test system: Mus musculus; assay: Reduction in body weight in male ICR mouse at 30 nmol/kg, sc measured for 4 days; type: functional, organism-based; conditions: time 4.0 day
# [13] = test system: Mus musculus; assay: Hypoglycemic effect in male db/db mouse model assessed as blood glucose level at 30 nmol/kg, sc administered every 3 days for 31 days and measured 72 hrs post each dose; type: functional, organism-based; conditions: time 31.0 day
# [14] = test system: Mus musculus; assay: Anti-obesity activity in male C57/B16 mouse model of diet-induced obesity assessed as reduction in body weight at 10 nmol/kg, sc administered every 3 days for 46 days and measured every 3 days relative to control; type: functional; set-up: scale not given: the % may be the effect or the level left; conditions: time 46.0 day
molecule,measurement,setting,value
CC(C)C[C@H](NC(=O)[C@H](CC(C)C)NC(=O)[C@H](Cc1c[nH]c2ccccc12)NC(=O)[C@H](CCC(N)=O)NC(=O)[C@@H](NC(=O)[C@H](Cc1ccccc1)NC(=O)[C@H](CC(C)C)NC(=O)[C@H](CCCCN)NC(=O)[C@H](C)NC(=O)[C@H](C)NC(=O)[C@H](CCC(N)=O)NC(=O)[C@H](CCCCN)NC(=O)[C@H](CCC(=O)O)NC(=O)[C@H](CC(C)C)NC(=O)[C@H](CSCC(=O)NCCCC[C@H](NC(=O)CC[C@H](NC(=O)CC[C@H](NC(=O)COCCOCCNC(=O)CCCCCCCCCCCCCCCCC(=O)O)C(=O)O)C(=O)O)C(=O)O)NC(=O)[C@H](Cc1ccc(O)cc1)NC(=O)[C@H](CO)NC(=O)[C@H](Cc1ccc(O)cc1)NC(=O)[C@H](CC(=O)O)NC(=O)[C@H](CO)NC(=O)[C@@H](NC(=O)[C@H](Cc1ccccc1)NC(=O)[C@@H](NC(=O)CNC(=O)[C@H](CCC(=O)O)NC(=O)C(C)(C)NC(=O)[C@@H](N)Cc1ccc(O)cc1)[C@@H](C)O)[C@@H](C)O)C(C)C)C(=O)N[C@@H](C)C(=O)NCC(=O)NCC(=O)N1CCC[C@H]1C(=O)N[C@@H](CO)C(=O)N[C@@H](CO)C(=O)NCC(=O)N[C@@H](C)C(=O)N1CCC[C@H]1C(=O)N1CCC[C@H]1C(=O)N1CCC[C@H]1C(=O)N[C@@H](CO)C(N)=O (H-Y[Aib]EGTFTSDYSYC(X3)LEKQAAKLFVQWLLAGGPSSGAPPPS-NH2),pEC50,[1],9.85
same,pEC50,[2],9.54
same,Activity,[3],Active
TIRZEPATIDE [listing 1 of 2 here],Cmax,[4],344 ng/mL
same,beta t1/2,[5],93.8 h
same,Tmax,[6],14 h
same,AUC,[7],35123 ng·h/mL
SEMAGLUTIDE,Activity,[8],Active
same,Activity,[9],10%
same,Activity,[10],inactive
CC(C)C[C@H](NC(=O)[C@H](CC(C)C)NC(=O)[C@H](Cc1c[nH]c2ccccc12)NC(=O)[C@H](CCC(N)=O)NC(=O)[C@@H](NC(=O)[C@H](Cc1ccccc1)NC(=O)[C@H](CC(C)C)NC(=O)[C@H](CSCC(=O)NCCCC[C@H](NC(=O)CC[C@H](NC(=O)CC[C@H](NC(=O)COCCOCCNC(=O)CCCCCCCCCCCCCCCCC(=O)O)C(=O)O)C(=O)O)C(=O)O)NC(=O)[C@H](C)NC(=O)[C@H](C)NC(=O)[C@H](CCC(N)=O)NC(=O)[C@H](CCCCN)NC(=O)[C@H](CCC(=O)O)NC(=O)[C@H](CC(C)C)NC(=O)[C@H](Cc1ccc(O)cc1)NC(=O)[C@H](Cc1ccc(O)cc1)NC(=O)[C@H](CO)NC(=O)[C@H](Cc1ccc(O)cc1)NC(=O)[C@H](CC(=O)O)NC(=O)[C@H](CO)NC(=O)[C@@H](NC(=O)[C@H](Cc1ccccc1)NC(=O)[C@@H](NC(=O)CNC(=O)[C@H](CCC(=O)O)NC(=O)C(C)(C)NC(=O)[C@@H](N)Cc1ccc(O)cc1)[C@@H](C)O)[C@@H](C)O)C(C)C)C(=O)N[C@@H](C)C(=O)NCC(=O)NCC(=O)N1CCC[C@H]1C(=O)N[C@@H](CO)C(=O)N[C@@H](CO)C(=O)NCC(=O)N[C@@H](C)C(=O)N1CCC[C@H]1C(=O)N1CCC[C@H]1C(=O)N1CCC[C@H]1C(=O)N[C@@H](CO)C(N)=O (H-Y[Aib]EGTFTSDYSYYLEKQAAC(X3)LFVQWLLAGGPSSGAPPPS-NH2),pEC50,[1],9.17
same,pEC50,[2],8.99
same,Activity,[11],Active
TIRZEPATIDE [listing 2 of 2 here],Activity,[8],Active
same,Activity,[12],Active
same,Activity,[10],Active
same,Activity,[13],Active
same,Activity,[14],21%
CC(C)C[C@H](NC(=O)[C@H](CC(C)C)NC(=O)[C@H](Cc1c[nH]c2ccccc12)NC(=O)[C@H](CCC(N)=O)NC(=O)[C@@H](NC(=O)[C@H](Cc1ccccc1)NC(=O)[C@H](CC(C)C)NC(=O)[C@H](CCCCN)NC(=O)[C@H](C)NC(=O)[C@H](C)NC(=O)[C@H](CCC(N)=O)NC(=O)[C@H](CSCC(=O)NCCCC[C@@H](NC(=O)CC[C@@H](NC(=O)CC[C@H](NC(=O)COCCOCCNC(=O)CCCCCCCCCCCCCCCCC(=O)O)C(=O)O)C(=O)O)C(=O)O)NC(=O)[C@H](CCC(=O)O)NC(=O)[C@H](CC(C)C)NC(=O)[C@H](Cc1ccc(O)cc1)NC(=O)[C@H](Cc1ccc(O)cc1)NC(=O)[C@H](CO)NC(=O)[C@H](Cc1ccc(O)cc1)NC(=O)[C@H](CC(=O)O)NC(=O)[C@H](CO)NC(=O)[C@@H](NC(=O)[C@H](Cc1ccccc1)NC(=O)[C@@H](NC(=O)CNC(=O)[C@H](CCC(=O)O)NC(=O)C(C)(C)NC(=O)[C@@H](N)Cc1ccc(O)cc1)[C@@H](C)O)[C@@H](C)O)C(C)C)C(=O)N[C@@H](C)C(=O)NCC(=O)NCC(=O)N1CCC[C@H]1C(=O)N[C@@H](CO)C(=O)N[C@@H](CO)C(=O)NCC(=O)N[C@@H](C)C(=O)N1CCC[C@H]1C(=O)N1CCC[C@H]1C(=O)N1CCC[C@H]1C(=O)N[C@@H](CO)C(N)=O (H-Y[Aib]EGTFTSDYSYYLEC(X2)QAAKLFVQWLLAGGPSSGAPPPS-NH2),pEC50,[1]; cho,9.96
same,pEC50,[2]; cho,9.85
same,Activity,[3],Active
same,Activity,[11],Active
CC(C)C[C@H](NC(=O)[C@H](CC(C)C)NC(=O)[C@H](Cc1c[nH]c2ccccc12)NC(=O)[C@H](CSCC(=O)NCCCC[C@H](NC(=O)CC[C@H](NC(=O)CC[C@H](NC(=O)COCCOCCNC(=O)CCCCCCCCCCCCCCCCCCC(=O)O)C(=O)O)C(=O)O)C(=O)O)NC(=O)[C@@H](NC(=O)[C@H](Cc1ccccc1)NC(=O)[C@H](CC(C)C)NC(=O)[C@H](CCCCN)NC(=O)[C@H](C)NC(=O)[C@H](C)NC(=O)[C@H](CCC(N)=O)NC(=O)[C@H](CCCCN)NC(=O)[C@H](CCC(=O)O)NC(=O)[C@H](CC(C)C)NC(=O)[C@H](Cc1ccc(O)cc1)NC(=O)[C@H](Cc1ccc(O)cc1)NC(=O)[C@H](CO)NC(=O)[C@H](Cc1ccc(O)cc1)NC(=O)[C@H](CC(=O)O)NC(=O)[C@H](CO)NC(=O)[C@@H](NC(=O)[C@H](Cc1ccccc1)NC(=O)[C@@H](NC(=O)CNC(=O)[C@H](CCC(=O)O)NC(=O)C(C)(C)NC(=O)[C@@H](N)Cc1ccc(O)cc1)[C@@H](C)O)[C@@H](C)O)C(C)C)C(=O)N[C@@H](C)C(=O)NCC(=O)NCC(=O)N1CCC[C@H]1C(=O)N[C@@H](CO)C(=O)N[C@@H](CO)C(=O)NCC(=O)N[C@@H](C)C(=O)N1CCC[C@H]1C(=O)N1CCC[C@H]1C(=O)N1CCC[C@H]1C(=O)N[C@@H](CO)C(N)=O (H-Y[Aib]EGTFTSDYSYYLEKQAAKLFVC(X4)WLLAGGPSSGAPPPS-NH2),pEC50,[1],8.95
same,pEC50,[2],9.36
same,Activity,[11],Active
